Experimental findings from patent US9499493B2, “2,4-pyrimidinediamine compounds and their uses” (Rigel Pharmaceuticals, Inc., priority 2002, dated 2016) are described below.

Where a name gives a salt, the structure may show the parent alone. Some results are limits rather than exact numbers.

For the first experiment, the system named is cultured human mast cells (CHMC). Description: CHMC low cell density IgE activation: tryptase assay. The experiment is classed as cell-based. The following applies: anti-IgE. The method in brief: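 Degranulation was triggered with anti-IgE for 30 minutes at 37° C in cultured human mast cells seeded at low density (1000-1500 cells/well, chosen by donor) after a 1 hr equilibration in MT buffer. Released tryptase in cleared supernatant was quantified with a tryptase substrate at room temperature for 30 minutes.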
In turn, `Oc1cccc(Nc2nc(Nc3ccc4oc(CN5CCNCC5)cc4c3)ncc2F)c1` [R926770, 5-Fluoro-N4-(3-hydroxyphenyl)-N2-[2-(N-piperazinomethylene)benzofuran-5-yl]-2,4-pyrimidinediamine] yielded an IC50 of 0.583 µM.

Consider `CCOC(=O)CCn1ncc2cc(Nc3nc(Nc4cccc(O)c4)ncc3F)ccc21` [R935303, N4-[1-(2-Ethoxycarbonylethyl)indazoline-5-yl]-5-fluoro-N2-(3-hydroxyphenyl)-2,4-pyrimidinediamine], for which it took 0.244 µM to reach half-maximal inhibition (IC50).

`Fc1cnc(Cl)nc1Nc1ccc2cn[nH]c2c1` [Compound R935260]: the IC50 was above 10 µM.

`CNC(=O)COc1cccc(Nc2ncc(F)c(Nc3ccc4c(c3)N(c3ccccn3)CC(C)(C)O4)n2)c1` [R940337, N4-[3-Dihydro-2,2-dimethyl-4-(2-pyridyl)-benzo[1,4]oxazin-6-yl]-5-fluoro-N2-[3-(methylaminocarbonylmethyleneoxy)phenyl]-2,4-pyrimidinediamine] registered an IC50 of 1.1 µM.

The test system is the same in the next experiment. Nature of the experiment: CHMC low cell density ionomycin activation: tryptase assay. It is filed as cell-based.
Conditions: not given
In turn, `Cc1cc(Nc2nc(Nc3cccc(OCCN4CCOCC4)c3)ncc2F)cc(C)c1O` [R940256, N4-(3,5-Dimethyl-4-hydroxyphenyl)-5-fluoro-N2-[3-[2-(N-morpholino)ethyloxy]phenyl]-2,4-pyrimidinediamine Hydrogen Chloride Salt] registered an IC50 above 10 µM.

`O=C(c1cc2cc(Nc3ncc(F)c(Nc4ccc5c(c4)OCCO5)n3)ccc2o1)N1CCCNCC1` [R926768, N4-(3,4-Ethylenedioxyphenyl)-5-fluoro-N2-[2-(N-homopiperazino)carbonylbenzofuran-5-yl]-2,4-pyrimidinediamine Hydrogen Chloride Salt] registered an IC50 above 10 µM.

`Oc1cccc(Nc2nc(Nc3ccc4[nH]ncc4c3)ncc2F)c1` [R935199, 5-Fluoro-N4-(3-hydroxyphenyl)-N2-(indazoline-5-yl)-2,4-pyrimidinediamine] gave an IC50 above 10 µM.

`O=C(c1cc2cc(Nc3ncc(F)c(Nc4ccc5c(c4)OCCO5)n3)ccc2o1)N1CCCNCC1` [R926767, N4-(3,4-Ethylenedioxyphenyl)-5-fluoro-N2-[2-(N-homopiperazino)carbonylbenzofuran-5-yl]-2,4-pyrimidinediamine] gave an IC50 above 10 µM.

On to `CNC(=O)COc1cccc(Nc2ncc(F)c(Nc3ccc4c(c3)C(N)CCO4)n2)c1` (stereo not shown) [R950368, N4-(4-Amino-3,4-dihydro-2H-1-benzopyran-6-yl)-5-fluoro-N2-[3-(N-methylamino)carbonylmethyleneoxyphenyl]-2,4-pyrimidinediamine], for which the IC50 was above 10 µM.

In turn, `O=C(CNc1cccc(Nc2ncc(F)c(Nc3ccc4c(c3)OCCO4)n2)c1)NCCO` [R950195, N4-(3,4-Ethylenedioxyphenyl)-5-fluoro-N2-[3-(N-2-hydroxyethyleneamino)carbonylmethyleneaminophenyl]-5-fluoro-2,4-pyrimidinediamine] had an IC50 above 10 µM.

With `CC(C)NC(=O)COc1cccc(Nc2ncc(F)c(Nc3ccc4c(c3)OCCO4)n2)c1` [R926830, N4-(3,4-Ethylenedioxyphenyl)-5-fluoro-N2-[3-(N-isopropylamino)carbonylmethyleneoxyphenyl]-2,4-pyrimidinediamine], it took 10 µM to reach half-maximal inhibition (IC50).

Compound `COC(=O)c1cc2cc(Nc3ncc(F)c(Nc4ccc5cnn(CCC(=O)O)c5c4)n3)ccc2o1` [R935296, N4-[1-(2-carboxyethyl)indazolne-6-yl]-5-fluoro-N2-(2-methoxycarbonylbenzofur-5-yl)-2,4-pyrimidinediamine] showed an IC50 above 10 µM.

For the compound `CNC(=O)CCn1ncc2cc(Nc3ncc(F)c(Nc4ccc(OC(F)(F)F)c(Cl)c4)n3)ccc21` [R935369, N4-(3-Chloro-4-trifluoromethoxyphenyl)-5-fluoro-N2-[1-[2(N-methylaminocarbonyl)ethyl]indazoline-5-yl]-2,4-pyrimidinediamine], the IC50 is above 10 µM.

As for `Oc1cccc(Nc2ncc(F)c(Nc3ccc4c(c3)OCCO4)n2)c1` [R925796, N4-(3,4-Ethylenedioxyphenyl)-5-fluoro-N2-(3-hydroxyphenyl)-2,4-pyrimidinediamine], the IC50 was above 10 µM.

Compound `CNC(=O)COc1cccc(Nc2ncc(F)c(Nc3cccc(N(CCO)CCO)c3)n2)c1` [R950266, N4-(3-Bis(N-hydroxyethyl)aminophenyl)-5-fluoro-N2-[3-(N-methylamino)carbonylmethyleneoxyphenyl]-2,4-pyrimidinediamine] displayed an IC50 above 10 µM.

For the compound `O=C(c1cc2cc(Nc3ncc(F)c(Nc4ccc5c(c4)OCCO5)n3)ccc2o1)N1CCOCC1` [R926492, N4-(3,4-Ethylenedioxyphenyl)-5-fluoro-N2-[2-(N-morpholino)carbonylbenzofuran-5-yl]-2,4-pyrimidinediamine], the IC50 is above 10 µM.

On to `CNC(=O)COc1cccc(Nc2ncc(F)c(Nc3ccc4c(c3)OCCO4)n2)c1` [R926816, N4-(3,4-Ethylenedioxyphenyl)-5-fluoro-N2-[3-(N-methylamino)carbonylmethyleneoxyphenyl]-2,4-pyrimidinediamine Hydrogen Chloride Salt], for which the IC50 was above 10 µM.

The compound `O=C(COc1cccc(Nc2ncc(F)c(Nc3ccc4c(c3)OCCO4)n2)c1)NC1CC1` [R926848, N2-[3-(N-Cyclopropylamino)carbonylmethyleneoxyphenyl]-N4-(3,4-ethylenedioxyphenyl)-5-fluoro-2,4-pyrimidinediamine] gave an IC50 of 10 µM.

Consider `OCCCn1ncc2ccc(Nc3ncc(F)c(Nc4cccc(O)c4)n3)cc21` [R935293, 5-Fluoro-N4-(3-hydroxyphenyl)-N2-[1-(3-hydroxypropyl)indazoline-6-yl]-2,4-pyrimidinediamine], for which the IC50 was above 10 µM.

`O=C(c1cc2cc(Nc3ncc(F)c(Nc4cccc(O)c4)n3)ccc2o1)N1CCNCC1` [R926500, 5-Fluoro-N4-(3-hydroxyphenyl)-N2-[2-(N-piperazino)carbonylbenzofuran-5-yl]-2,4-pyrimidinediamine]: the 50% inhibitory concentration (IC50) was above 10 µM.

The compound `COC(=O)c1ccc(Cn2cc3ccc(Nc4ncc(F)c(Nc5ccc6c(c5)OCCO6)n4)cc3n2)c(OC)c1` [R935336, N4-(3,4-Ethylenedioxyphenyl)-5-fluoro-N2-[2-(2-methoxy-4-carbomethoxybenzyl)indazoline-6-yl]-2,4-pyrimidinediamine] displayed an IC50 above 10 µM.

Compound `CNC(=O)COc1cc(Nc2ncc(F)c(Nc3cccc(O)c3)n2)cc(OCC(=O)NC)c1` [R926930, N2-[3,5-Bis[(N-methylamino)carbonylmethyleneoxy]phenyl]-5-fluoro-N4-(3-hydroxyphenyl)-2,4-pyrimidinediamine] showed an IC50 above 10 µM.

`COC(=O)COc1ccc(Nc2ncc(F)c(Nc3cccc(C#N)c3)n2)cc1` [R945110, N4-(3-Cyanophenyl)-5-fluoro-N2-(4-methoxycarbonylmethyleneoxyphenyl)-2,4-pyrimidinediamine]: the IC50 was above 10 µM.

`O=C(COc1cccc(Nc2ncc(F)c(Nc3ccc4c(c3)OCCO4)n2)c1)N1CCNCC1` [R926504, N4-(3,4-Ethylenedioxyphenyl)-5-fluoro-N2-[3-(N-piperazino)carbonylmethyleneoxyphenyl]-2,4-pyrimidinediamine Hydrogen Chloride Salt] returned an IC50 above 10 µM.

`N#CCOc1ccc(Nc2ncc(F)c(Nc3cccc(O)c3)n2)cc1` [R945070, N2-(4-Cyanomethyleneoxyphenyl)-5-fluoro-N4-(3-hydroxyphenyl)-2,4-pyrimidinediamine] yielded an IC50 above 10 µM.

`CNC(=O)COc1cccc(Nc2ncc(F)c(Nc3cccc4c3C(=O)N(C)C4=O)n2)c1` [R926856, 5-Fluoro-N2-[3-(N-methylamino)carbonylmethyleneoxyphenyl]-N4-(N-methylphthalimido-4-yl)-2,4-pyrimidinediamine] returned an IC50 above 10 µM.

In the case of `CSc1nc2ccc(Nc3ncc(F)c(Nc4cccc(O)c4)n3)cc2s1` [R950212, 5-Fluoro-N4-(3-hydroxyphenyl)-N2-[2-(methylthio)-1,3-benzothiaz-6-yl)-2,4-pyrimidinediamine], the IC50 is above 10 µM.

`CNC(=O)COc1cccc(Nc2ncc(F)c(Nc3ccc4c(c3)C(N=[N+]=[N-])CCO4)n2)c1` (stereo not shown) [R950383, N4-(4-Azido-3,4-dihydro-2H-1-benzopyran-6-yl)-5-fluoro-N2-[3-(N-methylamino)carbonylmethyleneoxyphenyl]-2,4-pyrimidinediamine] showed an IC50 above 10 µM.

`O=C(c1cc2cc(Nc3ncc(F)c(Nc4ccc5c(c4)OCCO5)n3)ccc2o1)N1CCNCC1` [R926499, N4-(3,4-Ethylenedioxyphenyl)-5-fluoro-N2-[2-(N-piperazino)carbonylbenzofuran-5-yl]-2,4-pyrimidinediamine] came in with an IC50 above 10 µM.

For `Fc1cnc(Nc2ccc3cn[nH]c3c2)nc1Nc1cccc(OC(F)(F)F)c1` [R935363, 5-Fluoro-N2-(indazoline-6-yl)-N4-(3-trifluoromethoxyphenyl)-2,4-pyrimidinediamine], the IC50 was above 10 µM.

The compound `CCOC(=O)COc1ccc(Nc2nc(Nc3ccc(OCC(=O)OCC)cc3)c(NC(=O)NC(=O)CCl)c(C(=O)OCC)n2)cc1` [R926589, N2,N4-Bis(4-ethoxycarbonylmethyleneoxyphenyl)-6-ethoxycarbonyl-5-(chloroacetylaminocarbonylamino)-2,4-pyrimidinediamine] displayed an IC50 of 10 µM.

In turn, `COC(=O)C(C)Oc1ccc(Nc2ncc(F)c(Nc3ccc(OC(C)C(=O)OC)cc3)n2)cc1` (racemic) [R926254, (±)-N2,N4-Bis[4-methoxycarbonyl(α-methyl)methyleneoxyphenyl]-5-fluoro-2,4-pyrimidinediamine] came in with an IC50 of 4 µM.

`CNC(=O)COc1cccc(Nc2ncc(F)c(Nc3ccc(OC)c(F)c3)n2)c1` [R926892, 5-Fluoro-N4-(3-fluoro-4-methoxyphenyl)-N2-[3-[(N-methylamino)carbonylmethyleneoxy]phenyl]-2,4-pyrimidinediamine] registered an IC50 above 10 µM.

Staying with this experiment, now noted: Homo sapiens, Mast cell.
For the compound `CNC(=O)CNc1cccc(Nc2ncc(F)c(Nc3cccc(O)c3)n2)c1` [R950218], the IC50 was above 10 µM.
